Source: EP1127071B1, “COMPOUNDS WITH GROWTH HORMONE RELEASING PROPERTIES” (Novo Nordisk A/S, priority 1998, dated 2000)

Assay: Pharmacokinetics after intravenous and oral administration in fasted Beagle dogs
Assay type: in vivo
Conditions: compared with the compound of example 408 of WO 9723508
Method: The pharmakokinetic data were obtained by the following procedure:
The pharmacokinetics of the test compounds were Investigated in fasted Beagle dogs.
Intravenous and oral administration of the test compound, in 5% glucose solution, was separated by a one-week washout.
Blood samples were collected immediately before drug administration (time zero) and than 0.08, 0.25, 0.50, 0.75, 1.0, 1.5. 2.0, 3.0, 4.0, 5.0, and 6.0 hours after administration.
The plasma samples were stored frozen (<-18°C) pending analysis.
An HPLC method with solid phase extraction and W detection was used for the quantification of the compound in plasma.
The pharmacokinetic parameters for the compounds were calculated by non-compartmental methods using the PC based pharmacokinetic software WinNonlin, version 1.1 (Scientific Consulting Inc., Apex, NC, USA).

For `CN(CCc1ccccn1)C(=O)[C@@H](Cc1ccccc1)N(C)C(=O)[C@@H](Cc1ccc2ccccc2c1)N(C)C(=O)/C=C/CC(C)(C)N` [Example 1, (2E)-5-Amino-5-methylhex-2-enoic acid N-methyl-N-[(1R)-1-(N-methyl-N-{(1R)-1-[N-methyl-N-(2-(2-pyridinyl)ethyl)carbamoyl]-2-phenylethyl}carbamoyl)-2-(2-naphthyl)ethyl]amide], the plasma half-life (administration in 5% glucose solution) was “shorter plasma half-life” and the oral bioavailability (oral vs intravenous administration in 5% glucose solution) was “better oral bioavailability”.
